# Test results taken from patent US20060160810A1, “2-Alkoxyphenyl substituted imidazotriazinones” (priority 2001, published 2006).
# Molecular target: T1, human recombinant PDE5 (Homo sapiens, UniProt O76074)
# T1 construct: made in house
# Test: Phosphodiesterase [3H] cGMP-SPA enzyme assay (inhibition of PDE5 in vitro)
# Assay type: biochemical
# Conditions: human recombinant PDE5 expressed in a bacculovirus system; substance concentration at which the reaction rate is reduced by 50%; read-out: PDE V IC50
# Description: To test the inhibiting action, the “Phosphodiesterase [^3H] cGMP-SPA enzyme assay” from Amersham Life Science was used. The test was carried out according to the manufacturer's test protocol. Use was made of human recombinant PDE5 which was expressed in a bacculovirus system. The substance concentration at which the reaction rate is reduced by 50% was measured.
row,Structure (SMILES),IC50 [nM]
1,"CCCc1nc(C)c2c(=O)[nH]c(-c3cc(S(=O)(=O)N4CCNCC4)ccc3OCC)nn12 [Example 1, 2-[2-Ethoxy-5-(1-piperazinylsulphonyl)phenyl]-5-methyl-7-propylimidazo-[5,1-f]-1,2,4-triazin-4(3H)-one]",4.2
2,"CCCc1nc(C)c2c(=O)[nH]c(-c3cc(S(=O)(=O)N4CC[N+]([O-])(CC)CC4)ccc3OCC)nn12 [Example 2, 2-{2-Ethoxy-5-[(4-ethyl-4-hydroxy-4λ^5-piperazin-1-yl)sulphonyl]phenyl}-5-methyl-7-propylimidazo[5,1-f]-1,2,4-triazin-4(3H)-one]",19
3,"CCCc1nc(C)c2c(=O)[nH]c(-c3cc(S(=O)(=O)NCCNCC)ccc3OCC)nn12 [Example 3, 4-Ethoxy-N-[2-(ethylamino)ethyl]-3-(5-methyl-4-oxo-7-propyl-3,4-dihydroimidazo[5,1-f]-1,2,4-triazin-2-yl)benzenesulphonamide]",19
4,"CCCc1nc(C)c2c(=O)[nH]c(-c3cc(S(=O)(=O)NCCN)ccc3OCC)nn12 [Example 4, N-(2-aminoethyl)-4-ethoxy-3-(5-methyl-4-oxo-7-propyl-3,4-dihydroimidazo[5,1-f]-1,2,4-triazin-2-yl)benzenesulphonamide]",2.4
